From patent EP0327492A1, “Herbicidally and plantgrowth regulatory active quinoline and pyrindine compounds” (CIBA-GEIGY AG, priority 1988, dated 1989)

Columns and labels:
Format in all cases: in vivo
Untersaaten in Mais = assay: Pre-post selectivity: growth inhibition of undersown grasses (post-emergent) versus maize (pre-emergent)
From the text: Verbindungen der Formel I zeigen in vorteilhafter Weise eine "pre-post-Selektivität" bei verscheidenen Gräsern in Maiskulturen.
Die wuchshemmende Wirkung in Gräsern ist in postemergenter Applikation stark ausgeprägt, während bei gleichzeitiger Preemergenter Applikation Maispflanzen in ihrem Wuchs nur geringfügig gehemmt werden. Derartige "pre-post-Selektivitäten" erlauben somit die Aussaat von Mais in Gräsern. Dabei soll der Zeitpunkt für die Applikation der Aktivsubstanz der Formel so gewählt werden, dass die Aktivsubstanz postemergent für die Gräser ober preemergent für den Mais angewendet wird. In den ersten Wochen ist der Zuwachs der Gräser so stark gehemmt, dass die Maispflanze sich ungehindert entfalten kann.
Eine Mischung von Gräsern (z.B. Poa, Festuca, Lolium, Bromus, Cynosurus) werden in 15 cm - Kunststofftöpfen mit steriler Landerde angesät und im Gewächshaus bei einer Tagestemperatur von 21°C und einer Nachttemperatur von 17°C angezogen. Die Beleuchtungsdauer beträgt 13,5 Stunden/Tag bei einer Lichtintensität von mind. 7000 Lux. Nach dem Ablauf werden die Pflanzen wöchentlich auf ca. 6 cm Höhe zurückgeschnitten. Ca. 42 Tage nach der Saat und 1 Tag nach dem letzten Schnitt erfolgt die Applikation mit 60-500 g Wirkstoff/ha als wässrige Spritzbrühe. Die Wasseraufwandmenge ist ca. 500 I/ha.
20 Tage nach der Behandlung wird der Versuch ausgewertet. Hierbei wird die Höhe des Neuzuwachses gemessen und in % Hemmung zum Durchschnitt der unbehandelten Kontrollen dargestellt. Die nekrotischen Schäden sind in % zur gesamten Blattfläche aufgeführt.
Mais der Sorte Blizzard G188 werden in 15 cm - Kunststofftöpfen mit steriler gesiebter Landerde angesät und im Gewächshaus bei einer Tagestemperatur von 22°C und einer Nachttemperatur von 19°C aufgestellt. Die Beleuchtungsdauer beträgt mindestens 13,5 Stunden/Tag bei einer Lichtintensität von mindestens 7000 Lux. 1 Tag nach der Saat erfolgt die Applikation mit 60-500 g Wirkstoff/ha, in der Regel 25 %ig formuliert und in wässriger Spritzbrühe. Die Wasseraufwandmenge ist ca. 200 I/ha.
16 Tage nach der Behandlung wird der Versuch ausgewertet. […]

Abutilon = assay: Post-emergent herbicidal action, contact herbicide (B.3); conditions: 500 bis 2000 [g/ha], 15 days after treatment
Protocol: (§1) Im Gewächshaus wird unmittelbar nach der Einsaat der Versuchspflanzen in Saatschalen die Erdoberfläche mit einer wässrigen Dispersion der Wirkstoffe, erhalten aus einem 25 %igen Emulsionskonzentrat behandelt. Es werden Konzentrationen von 2000-500 g Wirksubstanz/Hektar angewendet. Die Saatschalen werden im Gewächshaus bei 22-25° C und 50-70 % relativer Luftfeuchtigkeit gehalten und der Versuch nach 3 Wochen ausgewertet und die Resultate nach folgender Notenskala ausgewertet. • 1 Pflanze hat nicht gekeimt oder ist eingegangen • 2-3 sehr starke Schäden • 4 starke Schäden • 5 mittlere Schäden, die Pflanzen sind verkümmert • 6 Schäden, die Pflanze kann regenerieren • 7-8 leichte Schäden • 9 normales Wachstum, wie das unbehandelter Pflanzen
(§2) Boniturnoten von 1 bis 4 (insbesondere von 1 bis 3) weisen auf eine gute bis sehr gute Herbizidwirkung hin. Boniturnoten von 6 bis 9 (insbesondere 7 bis 9) weisen auf eine gute Toleranz (insbesondere bei Kulturpflanzen) hin.
(§3) Eine Anzahl Unkräuter, sowohl monokotyle wie dikotyle, werden nach dem Auflaufen (im 4- bis 6-Blattstadium) mit einer wässrigen Wirkstoffdispersion in einer Dosierung von 2000-500 g Wirksubstanz pro Hektar auf die Pflanzen gespritzt und diese bei 24°-26°C und 45-60 % relativer Luftfeuchtigkeit gehalten. 15 Tage nach der Behandlung wird der Versuch nach dem in Beispiel B.2. gegebenen Massstab bewertet.

Alopecurus myos. = assay: as above; conditions: 500 bis 2000 [g/ha], 15 days after treatment
Protocol: as §1, §2, §3

Amaranthus ret. = assay: as above; conditions: 500 bis 2000 [g/ha], 15 days after treatment
Protocol: as §1, §2, §3

Avena fatua = assay: as above; conditions: 500 bis 2000 [g/ha], 15 days after treatment
Protocol: as §1, §2, §3

Bromus tectorum = assay: as above; conditions: 500 bis 2000 [g/ha], 15 days after treatment
Protocol: as §1, §2, §3

Chenopodium Sp. = assay: as above; conditions: 500 bis 2000 [g/ha], 15 days after treatment
Protocol: as §1, §2, §3

Chrysanthe. leuc. = assay: as above; conditions: 500 bis 2000 [g/ha], 15 days after treatment
Protocol: as §1, §2, §3

Digitaria sang. = assay: as above; conditions: 500 bis 2000 [g/ha], 15 days after treatment
Protocol: as §1, §2, §3

Echinochloa crus galli = assay: as above; conditions: 500 bis 2000 [g/ha], 15 days after treatment
Protocol: as §1, §2, §3

Galium aparine = assay: as above; conditions: 500 bis 2000 [g/ha], 15 days after treatment
Protocol: as §1, §2, §3

Lolium perenne = assay: as above; conditions: 500 bis 2000 [g/ha], 15 days after treatment
Protocol: as §1, §2, §3

Sinapis = assay: as above; conditions: 500 bis 2000 [g/ha], 15 days after treatment
Protocol: as §1, §2, §3

Solanum nigrum = assay: as above; conditions: 500 bis 2000 [g/ha], 15 days after treatment
Protocol: as §1, §2, §3

Sorghum halep. = assay: as above; conditions: 500 bis 2000 [g/ha], 15 days after treatment
Protocol: as §1, §2, §3

Stellaria = assay: as above; conditions: 500 bis 2000 [g/ha], 15 days after treatment
Protocol: as §1, §2, §3

Veronica Sp. = assay: as above; conditions: 500 bis 2000 [g/ha], 15 days after treatment
Protocol: as §1, §2, §3

Xanthium Sp. = assay: as above; conditions: 500 bis 2000 [g/ha], 15 days after treatment
Protocol: as §1, §2, §3

Baumwolle = assay: Post-emergent herbicidal action (B.3), crop tolerance; conditions: 500 bis 2000 [g/ha], 15 days after treatment
Protocol: as §1, §2, §3

Soja = assay: as above; conditions: 500 bis 2000 [g/ha], 15 days after treatment
Protocol: as §1, §2, §3

Compound	"pre-post-Selektivität" bei Untersaaten in Mais (Untersaaten in Mais)	Herbizidwirkung (Abutilon)	Herbizidwirkung (Alopecurus myos.)	Herbizidwirkung (Amaranthus ret.)	Herbizidwirkung (Avena fatua)	Herbizidwirkung (Bromus tectorum)	Herbizidwirkung (Chenopodium Sp.)	Herbizidwirkung (Chrysanthe. leuc.)	Herbizidwirkung (Digitaria sang.)	Herbizidwirkung (Echinochloa crus galli)	Herbizidwirkung (Galium aparine)	Herbizidwirkung (Lolium perenne)	Herbizidwirkung (Sinapis)	Herbizidwirkung (Solanum nigrum)	Herbizidwirkung (Sorghum halep.)	Herbizidwirkung (Stellaria)	Herbizidwirkung (Veronica Sp.)	Herbizidwirkung (Xanthium Sp.)	Toleranz (im Wachstum beeinflusst) (Baumwolle)	Toleranz (im Wachstum beeinflusst) (Soja)
CC1CCc2cc3c(nc2C1)C1=NC(C)(C(C)C)C(=O)N1C3=O (stereo not drawn) [Verbindung 3.03, 2,9-Dimethyl-2-isopropyl-7,8,9,10-tetrahydro-3H,5H-imidazo[1',2':1,2]pyrrolo[3,4-b]chinolin-3,5-dion]	ausgeprägter "pre-post-Selektivität"	–	–	–	–	–	–	–	–	–	–	–	–	–	–	–	–	–	–	–
CC(C)C1(C)NC(c2nc3c(cc2C(=O)O)C(C)(C)CCC3)=NC1=O (stereo not drawn) [Verbindung 2.12, 2-(5-Isopropyl-5-methyl-1 H-imidazol-4-on-2-yl)-5,5-dimethyl-5,6,7,8-tetrahydrochinolin-3-carbonsäure]	ausgeprägter "pre-post-Selektivität"	–	–	–	–	–	–	–	–	–	–	–	–	–	–	–	–	–	–	–
CC1CCc2nc(C3=NC(=O)C(C)(C(C)C)N3)c(C(=O)O)cc21 (stereo not drawn) [Verbindung 2.06, 7H-5,6-Dihydro-2-(5-isopropyl-5-methyl-1 H-imidazol-4-on-2-yl)-5-methyl-1-pyrindin-3-carbonsäure]	–	gute bis sehr gute Herbizidwirkung (Boniturnoten von 1 bis 4 (insbesondere von 1 bis 3) weisen auf eine gute bis sehr gute Herbizidwirkung hin)	gute bis sehr gute Herbizidwirkung (Boniturnoten von 1 bis 4 (insbesondere von 1 bis 3) weisen auf eine gute bis sehr gute Herbizidwirkung hin)	gute bis sehr gute Herbizidwirkung (Boniturnoten von 1 bis 4 (insbesondere von 1 bis 3) weisen auf eine gute bis sehr gute Herbizidwirkung hin)	gute bis sehr gute Herbizidwirkung (Boniturnoten von 1 bis 4 (insbesondere von 1 bis 3) weisen auf eine gute bis sehr gute Herbizidwirkung hin)	gute bis sehr gute Herbizidwirkung (Boniturnoten von 1 bis 4 (insbesondere von 1 bis 3) weisen auf eine gute bis sehr gute Herbizidwirkung hin)	gute bis sehr gute Herbizidwirkung (Boniturnoten von 1 bis 4 (insbesondere von 1 bis 3) weisen auf eine gute bis sehr gute Herbizidwirkung hin)	gute bis sehr gute Herbizidwirkung (Boniturnoten von 1 bis 4 (insbesondere von 1 bis 3) weisen auf eine gute bis sehr gute Herbizidwirkung hin)	gute bis sehr gute Herbizidwirkung (Boniturnoten von 1 bis 4 (insbesondere von 1 bis 3) weisen auf eine gute bis sehr gute Herbizidwirkung hin)	gute bis sehr gute Herbizidwirkung (Boniturnoten von 1 bis 4 (insbesondere von 1 bis 3) weisen auf eine gute bis sehr gute Herbizidwirkung hin)	gute bis sehr gute Herbizidwirkung (Boniturnoten von 1 bis 4 (insbesondere von 1 bis 3) weisen auf eine gute bis sehr gute Herbizidwirkung hin)	gute bis sehr gute Herbizidwirkung (Boniturnoten von 1 bis 4 (insbesondere von 1 bis 3) weisen auf eine gute bis sehr gute Herbizidwirkung hin)	gute bis sehr gute Herbizidwirkung (Boniturnoten von 1 bis 4 (insbesondere von 1 bis 3) weisen auf eine gute bis sehr gute Herbizidwirkung hin)	gute bis sehr gute Herbizidwirkung (Boniturnoten von 1 bis 4 (insbesondere von 1 bis 3) weisen auf eine gute bis sehr gute Herbizidwirkung hin)	gute bis sehr gute Herbizidwirkung (Boniturnoten von 1 bis 4 (insbesondere von 1 bis 3) weisen auf eine gute bis sehr gute Herbizidwirkung hin)	gute bis sehr gute Herbizidwirkung (Boniturnoten von 1 bis 4 (insbesondere von 1 bis 3) weisen auf eine gute bis sehr gute Herbizidwirkung hin)	gute bis sehr gute Herbizidwirkung (Boniturnoten von 1 bis 4 (insbesondere von 1 bis 3) weisen auf eine gute bis sehr gute Herbizidwirkung hin)	gute bis sehr gute Herbizidwirkung (Boniturnoten von 1 bis 4 (insbesondere von 1 bis 3) weisen auf eine gute bis sehr gute Herbizidwirkung hin)	gute Toleranz (Boniturnoten von 6 bis 9 (insbesondere 7 bis 9) weisen auf eine gute Toleranz (insbesondere bei Kulturpflanzen) hin)	gute Toleranz (Boniturnoten von 6 bis 9 (insbesondere 7 bis 9) weisen auf eine gute Toleranz (insbesondere bei Kulturpflanzen) hin)
